# US7378497B2, “Potassium channels and genes encoding these potassium channels” (NeuroSearch A/S, priority 1999, dated 2008)
# How the values were obtained:
# KCNQ4 = molecular target: T1, KCNQ4 (Homo sapiens, UniProt P56696, H455Q); experiment: Two-electrode voltage clamp of KCNQ4 currents in Xenopus oocytes; format: cell-based; conditions: 200 μM Linopirdine
# T1 construct: A complete cDNA was assembled and cloned into the oocyte expression vector PTLN; expressed in transfected cells; host or cells: Xenopus oocytes (cRNA injection)
# T1 sequence (P56696 1-695 H455Q): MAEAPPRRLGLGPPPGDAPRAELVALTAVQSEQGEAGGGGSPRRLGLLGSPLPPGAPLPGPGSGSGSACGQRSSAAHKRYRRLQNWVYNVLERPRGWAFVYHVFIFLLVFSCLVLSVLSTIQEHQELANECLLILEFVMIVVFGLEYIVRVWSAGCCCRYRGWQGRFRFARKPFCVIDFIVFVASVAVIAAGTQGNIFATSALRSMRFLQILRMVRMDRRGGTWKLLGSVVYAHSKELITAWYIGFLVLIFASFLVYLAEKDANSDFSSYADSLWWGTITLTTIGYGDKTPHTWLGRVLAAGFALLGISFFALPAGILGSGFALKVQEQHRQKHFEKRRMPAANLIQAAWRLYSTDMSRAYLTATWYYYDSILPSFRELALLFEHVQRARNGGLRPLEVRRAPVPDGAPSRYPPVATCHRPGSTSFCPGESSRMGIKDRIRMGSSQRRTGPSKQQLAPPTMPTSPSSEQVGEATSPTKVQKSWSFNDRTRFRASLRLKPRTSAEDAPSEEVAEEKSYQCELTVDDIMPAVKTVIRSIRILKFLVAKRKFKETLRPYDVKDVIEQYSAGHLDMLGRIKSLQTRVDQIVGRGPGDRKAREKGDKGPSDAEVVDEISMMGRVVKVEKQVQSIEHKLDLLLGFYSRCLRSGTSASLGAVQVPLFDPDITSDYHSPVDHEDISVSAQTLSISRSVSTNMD
# Description: (§1) KCNQ4 was expressed in Xenopus oocytes and its activity was investigated by two-electrode voltage clamping.
# (§2) After linearization of the KCNQ4-containing PTLN vector with Hpal, capped cRNA was transcribed in vitro using the mMessage mMachine cRNA synthesis kit (Ambion). Usually 5-15 ng of cRNA were injected into Xenopus oocytes previously isolated by manual defolliculation and short collagenase treatment. In co-expression experiments cRNAs were injected at a 1:1 ratio. Oocytes were kept at 17° C. in modified Barth's solution (90 mM NaCl, 1 mM KCl, 0.41 mM CaCl2, 0.33 mM Ca(NO3)2, 0.82 mM MgSO4, 10 mM HEPES, 100 U penicillin-100 μg streptomycin/ml, pH 7.6).
# (§3) Standard two-electrode voltage-clamp measurements were performed at room temperature 2-4 days after injection using a Turbotec 05 amplifier (npi instruments, Tamm, Germany) and pClamp 5.5 software (Axon Instruments). Currents were usually recorded in ND98 solution (see Table 2). Solutions for Na^+/K^+replacement experiments were prepared from an appropriate mixture of solution KD100 (100 mM KCl) and ND100 (100 mM NaCl) to yield the stated concentrations of Na^+and K^+. Linopirdine (RBI, Natick, Mass.) was prepared as a 100 mM stock solution in DMSO and added to a final concentration of 200 μM to ND98.
# KCNQ3/KCNQ4 = molecular target: T2, KCNQ3/KCNQ4 (Homo sapiens, UniProt O43525+P56696, H455Q); experiment: Two-electrode voltage clamp of KCNQ3+KCNQ4 co-expression currents in Xenopus oocytes; format: cell-based; conditions: 200 μM Linopirdine
# T2 construct: A complete cDNA was assembled and cloned into the oocyte expression vector PTLN; expressed in transfected cells; host or cells: Xenopus oocytes (cRNAs co-injected 1:1)
# T2 sequence (P56696 1-695 H455Q): T1 sequence (P56696 1-695 H455Q)
# T2 sequence (O43525 1-872): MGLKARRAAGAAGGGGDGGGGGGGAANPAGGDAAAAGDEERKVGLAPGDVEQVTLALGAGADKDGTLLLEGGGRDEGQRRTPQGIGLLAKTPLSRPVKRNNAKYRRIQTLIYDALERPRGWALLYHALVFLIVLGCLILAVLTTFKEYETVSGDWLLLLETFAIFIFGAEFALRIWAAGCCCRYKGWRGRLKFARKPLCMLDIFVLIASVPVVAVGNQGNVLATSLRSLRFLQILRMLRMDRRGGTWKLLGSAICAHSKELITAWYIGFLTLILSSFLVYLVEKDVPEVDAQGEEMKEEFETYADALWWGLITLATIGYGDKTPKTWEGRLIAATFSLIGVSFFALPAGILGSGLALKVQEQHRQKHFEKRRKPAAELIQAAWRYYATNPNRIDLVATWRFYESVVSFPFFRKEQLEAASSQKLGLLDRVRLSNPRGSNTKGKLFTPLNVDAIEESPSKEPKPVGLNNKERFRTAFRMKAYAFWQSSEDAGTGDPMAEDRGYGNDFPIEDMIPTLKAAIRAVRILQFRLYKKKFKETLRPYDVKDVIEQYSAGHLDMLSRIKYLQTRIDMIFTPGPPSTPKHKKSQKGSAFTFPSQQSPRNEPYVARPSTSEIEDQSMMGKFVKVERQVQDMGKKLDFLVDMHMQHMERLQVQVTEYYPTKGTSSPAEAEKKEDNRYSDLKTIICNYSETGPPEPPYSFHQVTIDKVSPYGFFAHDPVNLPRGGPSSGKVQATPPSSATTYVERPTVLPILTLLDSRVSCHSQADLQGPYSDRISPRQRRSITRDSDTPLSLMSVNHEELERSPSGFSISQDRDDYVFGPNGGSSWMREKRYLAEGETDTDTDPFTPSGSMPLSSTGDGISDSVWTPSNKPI
# Description: as §1, §2, §3
# KCNQ2/KCNQ3 channels = KCNQ2/KCNQ3 channels (Homo sapiens, UniProt O43525+O43526, N780T); conditions: 200 μM Linopirdine; cited from earlier work
# Sequence of KCNQ2/KCNQ3 channels (O43526 1-844 isoform O43526-3 N752T, one chain of several): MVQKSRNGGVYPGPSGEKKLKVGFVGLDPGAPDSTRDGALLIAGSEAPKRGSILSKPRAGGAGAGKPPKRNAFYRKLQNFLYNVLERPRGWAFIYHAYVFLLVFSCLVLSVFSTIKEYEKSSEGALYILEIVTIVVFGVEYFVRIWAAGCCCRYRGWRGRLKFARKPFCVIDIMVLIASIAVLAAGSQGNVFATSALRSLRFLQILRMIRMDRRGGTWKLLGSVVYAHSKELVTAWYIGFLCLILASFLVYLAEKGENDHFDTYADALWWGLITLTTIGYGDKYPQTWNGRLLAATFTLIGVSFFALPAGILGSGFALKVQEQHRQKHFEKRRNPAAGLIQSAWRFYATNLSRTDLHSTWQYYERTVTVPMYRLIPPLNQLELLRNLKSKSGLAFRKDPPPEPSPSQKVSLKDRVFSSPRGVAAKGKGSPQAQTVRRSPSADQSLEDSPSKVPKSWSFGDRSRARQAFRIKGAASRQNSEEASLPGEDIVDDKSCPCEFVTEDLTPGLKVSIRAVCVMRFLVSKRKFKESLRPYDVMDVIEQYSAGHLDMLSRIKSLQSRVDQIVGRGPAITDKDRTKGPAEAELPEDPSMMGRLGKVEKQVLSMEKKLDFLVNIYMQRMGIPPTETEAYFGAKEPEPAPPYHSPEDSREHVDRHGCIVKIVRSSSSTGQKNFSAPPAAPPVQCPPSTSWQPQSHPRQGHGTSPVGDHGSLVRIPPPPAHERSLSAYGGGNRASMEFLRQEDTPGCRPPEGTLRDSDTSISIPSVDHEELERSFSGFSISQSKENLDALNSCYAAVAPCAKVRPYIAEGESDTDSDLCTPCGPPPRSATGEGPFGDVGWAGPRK
compound,measurement,setting,value
"O=C1N(c2ccccc2)c2ccccc2C1(Cc1ccncc1)Cc1ccncc1 [Linopirdine, 1,3-dihydro-1-phenyl-3,3-bis(4-pyridylmethyl)-2H-indol-2-one]",time to steady-state inhibition of KCNQ4 currents after addition,KCNQ4,~1 min
same,inhibition at 200 µM,"KCNQ4; currents measured at +40 mV, Xenopus oocytes, ND98, read-out: inhibition of KCNQ4 current",~30%
same,time to steady-state inhibition of KCNQ3+KCNQ4 currents after addition,KCNQ3/KCNQ4,~3 min
same,inhibition of KCNQ3/KCNQ4 co-expression current,"KCNQ3/KCNQ4; currents measured at +40 mV, Xenopus oocytes, ND98",≈ 75%
same,inhibition of KCNQ2/KCNQ3 channels,KCNQ2/KCNQ3 channels,nearly completely inhibits
